Reference: ChEMBL document CHEMBL1146698, “Phe*-Ala-based pentapeptide mimetics are BACE inhibitors: P2 and P3 SAR” (Bioorg Med Chem Lett, 2004)

Legend:
Beta-secretase 1 = Beta-secretase 1 (Homo sapiens, UniProt P56817); assay: In vitro inhibition of Beta-secretase-1 in HEK293 (Human Embryonic Kidney) cell line.; format: cell-based
HEK293 = assay: In vitro inhibitory activity against beta-amyloid peptide (Abeta) in HEK293/APP751swe cells; format: functional, cell-based; details: Homo sapiens
Beta-secretase 2 = target: T1, Beta-secretase 2 (Homo sapiens, UniProt Q9Y5Z0); assay: Selectivity tested against Beta-secretase 2 (BACE) in human
T1 sequence (Q9Y5Z0 whole entry): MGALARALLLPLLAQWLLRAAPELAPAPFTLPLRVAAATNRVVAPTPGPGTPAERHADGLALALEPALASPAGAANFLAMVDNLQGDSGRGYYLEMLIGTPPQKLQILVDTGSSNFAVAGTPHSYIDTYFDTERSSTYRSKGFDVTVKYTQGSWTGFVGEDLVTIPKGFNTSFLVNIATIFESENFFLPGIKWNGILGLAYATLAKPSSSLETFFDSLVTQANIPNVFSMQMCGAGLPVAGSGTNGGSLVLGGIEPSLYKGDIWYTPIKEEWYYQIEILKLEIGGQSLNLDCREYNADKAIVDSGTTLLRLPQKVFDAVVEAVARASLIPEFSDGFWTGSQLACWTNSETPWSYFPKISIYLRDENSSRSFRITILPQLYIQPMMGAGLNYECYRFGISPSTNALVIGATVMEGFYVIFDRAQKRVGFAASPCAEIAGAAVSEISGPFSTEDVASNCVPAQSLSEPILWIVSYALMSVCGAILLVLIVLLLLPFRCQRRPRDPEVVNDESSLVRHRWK

Beta-secretase 1, sequence (P56817 whole entry): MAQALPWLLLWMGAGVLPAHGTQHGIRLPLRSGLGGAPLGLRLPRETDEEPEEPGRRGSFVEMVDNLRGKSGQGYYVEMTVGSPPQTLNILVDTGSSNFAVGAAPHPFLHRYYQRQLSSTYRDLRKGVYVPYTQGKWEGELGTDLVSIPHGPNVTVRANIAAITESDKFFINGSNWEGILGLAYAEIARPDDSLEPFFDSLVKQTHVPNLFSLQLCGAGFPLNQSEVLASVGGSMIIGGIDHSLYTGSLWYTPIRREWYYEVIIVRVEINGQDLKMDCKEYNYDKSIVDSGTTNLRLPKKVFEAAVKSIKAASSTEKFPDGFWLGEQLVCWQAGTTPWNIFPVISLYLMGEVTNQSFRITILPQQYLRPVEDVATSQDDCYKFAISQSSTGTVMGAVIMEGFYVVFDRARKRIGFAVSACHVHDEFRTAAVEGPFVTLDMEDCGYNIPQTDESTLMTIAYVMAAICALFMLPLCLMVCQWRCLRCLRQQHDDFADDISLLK

| IC50 (Beta-secretase 1) | IC50 (Beta-secretase 2) | Compound | IC50 (HEK293) |
| --- | --- | --- | --- |
| 41 nM | – | CCC[C@H](NC(=O)OC(C)(C)C)C(=O)N[C@@H](C)C(=O)N[C@@H](Cc1ccccc1)[C@@H](O)CC(C)C(=O)NC(C(=O)NCc1ccncc1)C(C)C (single isomer, unassigned) | 1400 nM |
| 1060 nM | – | CC(C[C@H](O)[C@H](Cc1ccccc1)NC(=O)C(C)NC(=O)[C@@H](NC(=O)OC(C)(C)C)C(C)C)C(=O)NC(C(=O)NCc1ccncc1)C(C)C (single isomer, unassigned) | 48000 nM |
| 419 nM | – | CC(C[C@H](O)[C@H](Cc1ccccc1)NC(=O)[C@H](C)NC(=O)[C@H](CCCC(F)(F)F)NC(=O)OC(C)(C)C)C(=O)NC(C(=O)NCc1ccncc1)C(C)C (single isomer, unassigned) | 13400 nM |
| 2530 nM | – | CC(C[C@H](O)[C@H](Cc1ccccc1)NC(=O)[C@H](C)NC(=O)[C@H](CN(C)C)NC(=O)OC(C)(C)C)C(=O)NC(C(=O)NCc1ccncc1)C(C)C (single isomer, unassigned) | – |
| 127 nM | – | COCC[C@H](NC(=O)[C@@H](NC(=O)OC(C)(C)C)C(C)C)C(=O)N[C@@H](Cc1ccccc1)[C@@H](O)CC(C)C(=O)NC(C(=O)NCc1ccncc1)C(C)C (single isomer, unassigned) | 2900 nM |
| 45 nM | – | CC(C[C@H](O)[C@H](Cc1ccccc1)NC(=O)[C@H](C)NC(=O)[C@H](CC(F)F)NC(=O)OC(C)(C)C)C(=O)NC(C(=O)NCc1ccncc1)C(C)C (single isomer, unassigned) | 400 nM |
| 63 nM | – | CC(C)C[C@H](NC(=O)OC(C)(C)C)C(=O)N[C@@H](C)C(=O)N[C@@H](Cc1ccccc1)[C@@H](O)CC(C)C(=O)NC(C(=O)NCc1ccncc1)C(C)C (single isomer, unassigned) | 860 nM |
| 705 nM | – | COCC[C@H](NC(=O)OC(C)(C)C)C(=O)N[C@@H](C)C(=O)N[C@@H](Cc1ccccc1)[C@@H](O)CC(C)C(=O)NC(C(=O)NCc1ccncc1)C(C)C (single isomer, unassigned) | – |
| 89000 nM | – | CC(C[C@H](O)[C@H](Cc1ccccc1)NC(=O)[C@H](C)NC(=O)[C@H](CCN(C)C)NC(=O)OC(C)(C)C)C(=O)NC(C(=O)NCc1ccncc1)C(C)C (single isomer, unassigned) | – |
| 82 nM | – | CC(C[C@H](O)[C@H](Cc1ccccc1)NC(=O)[C@H](C)NC(=O)[C@@H](NC(=O)OC(C)(C)C)C(C)C)C(=O)NC(C(=O)NCc1ccncc1)C(C)C (single isomer, unassigned) | 2100 nM |
| 75 nM | – | CC[C@H](NC(=O)OC(C)(C)C)C(=O)N[C@@H](C)C(=O)N[C@@H](Cc1ccccc1)[C@@H](O)CC(C)C(=O)NC(C(=O)NCc1ccncc1)C(C)C (single isomer, unassigned) | 2800 nM |
| 281 nM | – | CC(C[C@H](O)[C@H](Cc1ccccc1)NC(=O)[C@H](C)NC(=O)[C@H](CC(F)(F)C(F)F)NC(=O)OC(C)(C)C)C(=O)NC(C(=O)NCc1ccncc1)C(C)C (single isomer, unassigned) | 1620 nM |
| 60 nM | – | CCC[C@H](NC(=O)OC(C)(C)C)C(=O)N[C@@H](CCSC)C(=O)N[C@@H](Cc1ccccc1)[C@@H](O)CC(C)C(=O)NC(C(=O)NCc1ccncc1)C(C)C (single isomer, unassigned) | 990 nM |
| – | 500 nM | CSCC[C@H](NC(=O)[C@@H](NC(=O)OC(C)(C)C)C(C)C)C(=O)N[C@@H](CC(C)C)[C@@H](O)C[C@@H](C)C(=O)N[C@H](C(=O)NCc1ccccc1)C(C)C | – |
| 70 nM | – | CSCC[C@H](NC(=O)[C@@H](NC(=O)OC(C)(C)C)C(C)C)C(=O)N[C@@H](Cc1ccccc1)[C@@H](O)CC(C)C(=O)NC(C(=O)NCc1ccncc1)C(C)C (single isomer, unassigned) | 1700 nM |
| 118 nM | – | COC[C@H](NC(=O)OC(C)(C)C)C(=O)N[C@@H](C)C(=O)N[C@@H](Cc1ccccc1)[C@@H](O)CC(C)C(=O)NC(C(=O)NCc1ccncc1)C(C)C (single isomer, unassigned) | 4990 nM |
| 28 nM | – | CSCC[C@H](NC(=O)[C@@H](NC(=O)OC(C)(C)C)C(C)C)C(=O)N[C@@H](Cc1ccccc1)[C@@H](O)C[C@@H](C)C(=O)N[C@H](C(=O)NCc1ccccc1)C(C)C | 22000 nM |
| 42 nM | – | CC[C@@H](C)[C@H](NC(=O)OC(C)(C)C)C(=O)N[C@@H](C)C(=O)N[C@@H](Cc1ccccc1)[C@@H](O)CC(C)C(=O)NC(C(=O)NCc1ccncc1)C(C)C (single isomer, unassigned) | 410 nM |
